Biological target: truncated PI3Kα (p110α/iSH2 p85α) (Homo sapiens (Human), UniProt P42336)
Assay: PI3KA_Act fluorescence polarization kinase assay (Ki)
Type: biochemical
Details: 1 mM ATP
Description: 2) p110α-iSH2 p85α Complex (Full Length p110α and p85α iSH2)(“PI3KA_Act”)
Genes encoding for full length p110α and p85α nSH-iSH2=niSH2 (p85a aminoacids 322-600) subunits of PI3Kα complex were subcloned from existing constructs into pFASTBAC Dual vector (Life Technologies, Carlsbad, Calif.) using standard cloning procedures. Gene encoding p110α subunit was subcloned into polyhedrine promoter while gene encoding p85α niSH2 domains was subcloned into p10 promoter. Additionally, Human Rhinovirus 3C Protease (“HRV 3C”) site was introduced between nSH2 and iSH2, replacing aminoacids 431-438 of p85α with […] HRV 3C recognition sequence, using standard QuickChange mutagenesis protocol (Agilent Technologies, CA). Recombinant baculovirus was generated using Bac-to-Bac protocol (Life Technologies, Carlsbad, Calif.). Large scale expression was conducted in Sf21 (Life Technologies, Carlsbad, Calif.) cells at a multiplicity of infection (“MOI”)=1 for 48 hours. Cells were lyzed in 50 mM Tris pH 8.0, 250 mM NaCl, 5% glycerol, 0.25 mM TCEP, and 20 mM imidazole. The p110α-niSH2 p85α complex was purified from clarified supernatant using Immobilized Metalo Affinity Chromatography (“IMAC”). The protein was eluted from the column using 50 mM Tris pH 8.0, 200 mM NaCl, 0.25 mM TCEP, and 200 mM imidazole. Following elution p110α-niSH2 p85α complex was dialyzed against 4 liters of 50 mM Tris pH 8.0, 200 mM NaCl, 0.25 mM TCEP, and 40 mM imidazole in the presence of PreScission Protease (1:70 molar ratio of Protease to Protein) and TEV protease (1:40 molar ratio protease to protein) for 16 hours at 4° C. The protein was further purified using reverse IMAC to remove cleaved histidine tag and contaminants captured during initial IMAC purification. The mixture of p110α-iSH2 p85α complex and cleaved nSH2 was recovered in reverse IMAC 40 mM imidazole flow through and 60 mM imidazole wash fractions. Those fractions were pulled together and loaded on Superdex 200 26/60 SEC column equilibrated in 25 mM Tris, pH 8.0, 100 mM NaCl, 2% glycerol, and 2 mM TCEP. Following SEC, chromatography peak fractions containing p110α-iSH2 p85α complex were pulled and concentrated to 4.3 mg/mL. Purity and integrity of the complex was confirmed using LCMS, analytical SEC and SDS-PAGE (sodium dodecyl sulfate polyacrylamide gel electrophoresis) analysis.
The biochemical assays of kinase activity of full-length PI3Kα (full-length p110α/p85a) or truncated PI3Kα (p110α/iSH2 p85a) were conducted using a fluorescence polarization format similar to the procedure of Yuan J., et al., (2011) “PF-04691502, a Potent and Selective Oral Inhibitor of PI3K and mTOR Kinases with Antitumor Activity”, Mol Cancer Ther. 10, 2189-2199. The enzymatic reactions were conducted in 50 μL volumes in 96-well plates. The reactions contained human recombinant PI3Kα (2 nM full-length p110α/p85α or 0.5 nM p110α/iSH2 p85) and 30 μM phosphatidylinositol 4,5-bisphosphate (“PIP2”) (Cayman Chemical Company, Ann Arbor, Mich.) and were sonicated for 1 minute prior to adding PI3Kα enzyme (PI3KA_Act or PI3KA_FL), DMSO or test compound (12-point 3-fold serial dilution, 3 μM top dose, 2° A) DMSO final concentration), 5 mM MgCl2, 50 mM HEPES pH 7.4, 150 mM NaCl, 1 mM DTT ((2S,3S)-1,4-bis(sulfanyl)butane-2,3-diol), and 0.05% 3-[(3-cholamidopropyl)dimethylammonio]-1-propanesulfonate (“CHAPS”). […] The reactions were incubated for 30 min at room temperature, stopped with EDTA pH 8 (10 mM final concentration). In a detection plate, 15 μL of detector/probe mixture, containing 480 nM GST-Grp1 PH domain protein (University of Dundee, Dundee, UK) and 12 nM carboxytetramethylrhodamine (“TAMRA”)-tagged fluorescent phosphatidylinositol (3,4,5)-triphosphate (“PIP3”) (Echelon Biosciences, Inc., Salt Lake City, Utah) in assay buffer, was mixed with 15 μL of kinase reaction mixture. The plate was shaken for 30 minutes and fluorescence polarization values were measured on an LJL Analyst HT plate reader (Molecular Devices, Sunnyvale, Calif.). […]

Sequence of truncated PI3Kα (p110α/iSH2 p85α) (P42336 whole entry, the tested form may be a part): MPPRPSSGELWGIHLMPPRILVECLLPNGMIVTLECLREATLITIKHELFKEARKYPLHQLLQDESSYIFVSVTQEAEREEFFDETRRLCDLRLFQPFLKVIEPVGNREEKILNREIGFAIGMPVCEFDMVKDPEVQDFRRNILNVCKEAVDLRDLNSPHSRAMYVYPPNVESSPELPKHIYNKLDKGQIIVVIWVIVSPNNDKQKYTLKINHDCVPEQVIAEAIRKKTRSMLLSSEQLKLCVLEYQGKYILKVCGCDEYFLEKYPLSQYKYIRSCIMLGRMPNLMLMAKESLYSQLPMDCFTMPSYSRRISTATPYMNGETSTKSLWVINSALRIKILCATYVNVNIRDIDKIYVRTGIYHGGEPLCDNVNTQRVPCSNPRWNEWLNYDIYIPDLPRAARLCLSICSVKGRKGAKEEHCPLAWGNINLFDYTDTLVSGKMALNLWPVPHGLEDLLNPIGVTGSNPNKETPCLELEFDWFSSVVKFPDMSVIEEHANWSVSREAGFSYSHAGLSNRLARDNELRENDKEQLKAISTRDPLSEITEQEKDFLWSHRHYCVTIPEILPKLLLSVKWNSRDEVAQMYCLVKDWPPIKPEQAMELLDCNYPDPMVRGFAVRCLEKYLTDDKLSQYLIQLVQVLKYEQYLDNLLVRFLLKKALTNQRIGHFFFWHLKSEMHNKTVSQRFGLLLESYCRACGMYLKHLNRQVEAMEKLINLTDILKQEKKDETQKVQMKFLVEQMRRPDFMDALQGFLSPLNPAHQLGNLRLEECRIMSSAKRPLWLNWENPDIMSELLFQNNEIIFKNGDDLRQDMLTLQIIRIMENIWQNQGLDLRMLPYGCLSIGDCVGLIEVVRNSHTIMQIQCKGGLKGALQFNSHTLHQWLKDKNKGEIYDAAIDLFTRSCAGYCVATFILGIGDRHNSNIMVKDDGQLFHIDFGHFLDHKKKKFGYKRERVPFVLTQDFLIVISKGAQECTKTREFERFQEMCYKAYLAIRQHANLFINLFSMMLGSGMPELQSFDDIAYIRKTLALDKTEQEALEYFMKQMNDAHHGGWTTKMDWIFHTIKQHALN

Cn1cnc(S(=O)(=O)N2CC(N3CCc4c(-c5cnc(N)nc5)nc(N5CCOCC5)nc43)C2)c1 [Example 179]
PI3KA_Act Ki: 0.344 nM

CP(C)(=O)N1CC[C@@H](N2CCc3c(-c4cnc(N)nc4)nc(N4CCOCC4)nc32)C1 [Example 180]
PI3KA_Act Ki: 1.759 nM

CP(C)(=O)N1CC[C@H](N2CCc3c(-c4cnc(N)nc4)nc(N4CCOCC4)nc32)C1 [Example 181]
PI3KA_Act Ki: 0.296 nM

C[C@H](O)COC(=O)N1CC(N2CCc3c(-c4cnc(N)nc4)nc(N4CCOC[C@@H]4C)nc32)C1 [Example 182]
PI3KA_Act Ki: 0.357 nM

CC(C)(CO)N1CCc2c(-c3cnc(N)nc3)nc(N3CCOCC3)nc21 [Example 183]
PI3KA_Act Ki: 0.393 nM

CCC(C)(C)N1CCc2c(-c3cnc(N)nc3)nc(N3CCOCC3)nc21 [Example 184]
PI3KA_Act Ki: 0.647 nM

C[C@@H](O)COC(=O)N1CC(N2CCc3c(-c4cnc(N)nc4)nc(N4CCOCC4)nc32)C1 [Example 185]
PI3KA_Act Ki: 0.182 nM

C[C@@H](O)COC(=O)N1CC(N2CCc3c(-c4cnc(N)nc4)nc(N4CCOC[C@@H]4C)nc32)C1 [Example 186]
PI3KA_Act Ki: 0.274 nM

CCCC(C)(C)N1CCc2c(-c3cnc(N)nc3)nc(N3CCOCC3)nc21 [Example 187]
PI3KA_Act Ki: 0.839 nM

COCC(C)(C)N1CCc2c(-c3cnc(N)nc3)nc(N3CCOCC3)nc21 [Example 188]
PI3KA_Act Ki: 0.642 nM

CP(C)(=O)N1CC(N2CCc3c(-c4cnc(N)nc4)nc(N4CCOCC4)nc32)C1 [Example 189]
PI3KA_Act Ki: 1.162 nM

CNS(=O)(=O)N1CC(C)(N2CCc3c(-c4cnc(N)nc4)nc(N4CCOCC4)nc32)C1 [Example 190]
PI3KA_Act Ki: 0.040 nM

CC(C)(CNS(C)(=O)=O)N1CCc2c(-c3cnc(N)nc3)nc(N3CCOCC3)nc21 [Example 191]
PI3KA_Act Ki: 0.881 nM

C[C@@]1(N2CCc3c(-c4cnc(N)nc4)nc(N4CCOCC4)nc32)CCN(S(N)(=O)=O)C1 [Example 192]
PI3KA_Act Ki: 0.053 nM

CC(C)(C)OC(=O)N1CC[C@](C)(N2CCc3c(-c4cnc(N)nc4)nc(N4CCOCC4)nc32)C1 [Example 194]
PI3KA_Act Ki: <0.018 nM

CC(C)(C)OC(=O)N1CC[C@@](C)(N2CCc3c(-c4cnc(N)nc4)nc(N4CCOCC4)nc32)C1 [Example 195]
PI3KA_Act Ki: 0.166 nM

CCS(=O)(=O)N1CC(C)(N2CCc3c(-c4cnc(N)nc4)nc(N4CCOCC4)nc32)C1 [Example 196]
PI3KA_Act Ki: 0.024 nM

CC1(N2CCc3c(-c4cnc(N)nc4)nc(N4CCOCC4)nc32)CN(S(=O)(=O)C2CC2)C1 [Example 197]
PI3KA_Act Ki: 0.040 nM

CC(C)S(=O)(=O)N1CC(C)(N2CCc3c(-c4cnc(N)nc4)nc(N4CCOCC4)nc32)C1 [Example 198]
PI3KA_Act Ki: 0.024 nM

CC1(N2CCc3c(-c4cnc(N)nc4)nc(N4CCOCC4)nc32)CNC1 [Example 199]
PI3KA_Act Ki: 0.151 nM

CCOC(=O)C(C)(C)N1CCc2c(-c3cnc(N)nc3)nc(N3CCOC[C@@H]3C)nc21 [Example 200]
PI3KA_Act Ki: 0.909 nM

COCCC(=O)N1CC(N2CCc3c(-c4cnc(N)nc4)nc(N4CCOC[C@@H]4C)nc32)C1 [Example 202]
PI3KA_Act Ki: 1.037 nM

CCS(=O)(=O)N1CC(C)(N2CCc3c(-c4cnc(N)nc4)nc(N4CCOC[C@@H]4C)nc32)C1 [Example 203]
PI3KA_Act Ki: 0.032 nM

CC(C)S(=O)(=O)N1CC(C)(N2CCc3c(-c4cnc(N)nc4)nc(N4CCOC[C@@H]4C)nc32)C1 [Example 204]
PI3KA_Act Ki: <0.018 nM

C[C@H]1COCCN1c1nc(-c2cnc(N)nc2)c2c(n1)N(C1(C)CN(S(=O)(=O)C3CC3)C1)CC2 [Example 205]
PI3KA_Act Ki: 0.021 nM

C[C@H]1COCCN1c1nc(-c2cnc(N)nc2)c2c(n1)N(C1(C)CN(S(C)(=O)=O)C1)CC2 [Example 206]
PI3KA_Act Ki: 0.031 nM

C[C@H]1COCCN1c1nc(-c2cnc(N)nc2)c2c(n1)N(C1CN(S(=O)(=O)C3CN(C(=O)OC(C)(C)C)C3)C1)CC2 [Example 207]
PI3KA_Act Ki: 0.100 nM

CC1(N2CCc3c(-c4cnc(N)nc4)nc(N4CCOCC4)nc32)CN(S(N)(=O)=O)C1 [Example 208]
PI3KA_Act Ki: 0.062 nM

CC1(N2CCc3c(-c4cnc(N)nc4)nc(N4CCOCC4)nc32)CN(S(C)(=O)=O)C1 [Example 209]
PI3KA_Act Ki: 0.045 nM

CC(=O)NCC(=O)N1CC(N2CCc3c(-c4cnc(N)nc4)nc(N4CCOCC4)nc32)C1 [Example 210]
PI3KA_Act Ki: 0.898 nM

CC(=O)N1CC[C@@](C)(N2CCc3c(-c4cnc(N)nc4)nc(N4CCOCC4)nc32)C1 [Example 211]
PI3KA_Act Ki: 0.078 nM

CC(C)C(=O)NCC(=O)N1CC(N2CCc3c(-c4cnc(N)nc4)nc(N4CCOC[C@@H]4C)nc32)C1 [Example 212]
PI3KA_Act Ki: 0.534 nM

COC(=O)N1CC[C@](C)(N2CCc3c(-c4cnc(N)nc4)nc(N4CCOCC4)nc32)C1 [Example 213]
PI3KA_Act Ki: 0.030 nM

COC(=O)N1CC[C@@](C)(N2CCc3c(-c4cnc(N)nc4)nc(N4CCOCC4)nc32)C1 [Example 214]
PI3KA_Act Ki: 0.128 nM

C[C@@]1(N2CCc3c(-c4cnc(N)nc4)nc(N4CCOCC4)nc32)CCNC1 [Example 215]
PI3KA_Act Ki: 0.476 nM

CNC(=O)N1CC[C@](C)(N2CCc3c(-c4cnc(N)nc4)nc(N4CCOCC4)nc32)C1 [Example 216]
PI3KA_Act Ki: 0.124 nM

CN(CC(C)(C)N1CCc2c(-c3cnc(N)nc3)nc(N3CCOCC3)nc21)S(C)(=O)=O [Example 217]
PI3KA_Act Ki: 0.191 nM

CC(C)C(=O)NCC(=O)N1CC(N2CCc3c(-c4cnc(N)nc4)nc(N4CCOCC4)nc32)C1 [Example 218]
PI3KA_Act Ki: 0.751 nM

C[C@H]1COCCN1c1nc(-c2cnc(N)nc2)c2c(n1)N(C1(C)CN(S(N)(=O)=O)C1)CC2 [Example 219]
PI3KA_Act Ki: 0.037 nM

CNS(=O)(=O)N1CC(C)(N2CCc3c(-c4cnc(N)nc4)nc(N4CCOC[C@@H]4C)nc32)C1 [Example 220]
PI3KA_Act Ki: 0.053 nM

COCCC(=O)N1CC(N2CCc3c(-c4cnc(N)nc4)nc(N4CCOCC4)nc32)C1 [Example 221]
PI3KA_Act Ki: 1.291 nM

C[C@H]1COCCN1c1nc(-c2cnc(N)nc2)c2c(n1)N(C1CN(S(=O)(=O)C3CNC3)C1)CC2 [Example 222]
PI3KA_Act Ki: 0.101 nM

CC(=O)N1CC(S(=O)(=O)N2CC(N3CCc4c(-c5cnc(N)nc5)nc(N5CCOC[C@@H]5C)nc43)C2)C1 [Example 223]
PI3KA_Act Ki: 0.393 nM

CC(C)S(=O)(=O)N1CC(N2CCc3c(-c4cnc(N)nc4)nc(N4CCOC[C@H]4C)nc32)C1 [Example 224]
PI3KA_Act Ki: 2.296 nM

C[C@@H]1COCCN1c1nc(-c2cnc(N)nc2)c2c(n1)N([C@@]1(C)CCNC1)CC2 [Example 225]
PI3KA_Act Ki: 4.151 nM

C[C@@H]1COCCN1c1nc(-c2cnc(N)nc2)c2c(n1)N([C@]1(C)CCNC1)CC2 [Example 226]
PI3KA_Act Ki: 7.437 nM

C[C@@H]1COCCN1c1nc(-c2cnc(N)nc2)c2c(n1)N(C1(C)CCN(C(=O)OC(C)(C)C)C1)CC2 (stereo partly drawn) [Example 228]
PI3KA_Act Ki: 0.164 nM

C[C@@H]1COCCN1c1nc(-c2cnc(N)nc2)c2c(n1)N([C@@]1(C)CCN(C(=O)OC(C)(C)C)C1)CC2 [Example 229]
PI3KA_Act Ki: 0.055 nM
